Laboratory results taken from US9695155B2, “Herbicidal substituted pyrimidinyloxy benzene compounds” (E. I. DU PONT DE NEMOURS AND COMPANY, priority 2013, dated 2017).

Experiments:
bluegrass [1] = test: Test D preemergence; assay type: in vivo, Poa annua; conditions: Poa annua, pre-emergence
In short: (§1)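 Visual rating vs untreated controls, 0 = no effect, 100 = complete control, taken 7–21 d after treatment. Pre: silt loam soil. Post: potting medium, plants 2–18 cm, 1–4 leaf. Formulation: non-phytotoxic solvent mix + surfactant.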

canarygrass = test: Test D preemergence; assay type: in vivo, Phalaris minor; conditions: Phalaris minor, pre-emergence
In short: as §1

deadnettle = test: Test D preemergence; assay type: in vivo, Lamium amplexicaule; conditions: Lamium amplexicaule, pre-emergence
In short: as §1

oilseed rape = test: Test D preemergence; assay type: in vivo, Brassica napus; conditions: Brassica napus, pre-emergence
In short: as §1

pigweed = test: Test D preemergence; assay type: in vivo, Amaranthus retroflexus; conditions: Amaranthus retroflexus, pre-emergence
In short: as §1

speedwell = test: Test D preemergence; assay type: in vivo, Veronica persica; conditions: Veronica persica, pre-emergence
In short: as §1

spring wheat = test: Test D preemergence; assay type: in vivo, Triticum aestivum; conditions: Triticum aestivum, pre-emergence
In short: as §1

wild oat = test: Test D preemergence; assay type: in vivo, Avena fatua; conditions: Avena fatua, pre-emergence
In short: as §1

bluegrass [2] = test: Test D postemergence; assay type: in vivo, Poa annua; conditions: Poa annua, post-emergence, Postemergence, scale 0 to 100 (0 no effect, 100 complete control), read-out: Plant response rating, Bluegrass
In short: as §1

lambsquarters = test: Test D postemergence; assay type: in vivo, Chenopodium album; conditions: Chenopodium album, post-emergence
In short: as §1

wild buckwheat = test: Test D postemergence; assay type: in vivo, Polygonum convolvulus; conditions: Fallopia convolvulus, post-emergence, Postemergence, scale 0 to 100 (0 no effect, 100 complete control), read-out: Plant response rating, Buckwheat, Wild
In short: as §1

`Fc1cccc(Oc2ncc(Cl)cn2)c1-n1cc(C(F)F)nn1` [Compound 141, 5-chloro-2-[2-[4-(difluoromethyl)-1H-1,2,3-triazol-1-yl]-3-fluorophenoxy]pyrimidine] gave a pest or weed control at 16 g/ha (bluegrass [1]; 16 g ai/ha, scale 0 (no effect) to 100 (complete control), read-out: Plant response rating, Bluegrass) of 15%, a pest or weed control at 31 g/ha (bluegrass [1]; 31 g ai/ha, scale 0-100, read-out: Plant response rating, Bluegrass) of 35% and a pest or weed control at 62 g/ha (bluegrass [1]; 62 g ai/ha, scale 0-100, read-out: Plant response rating, Bluegrass) of 90%. It also gave a pest or weed control at 125 g/ha (bluegrass [1]; 125 g ai/ha, scale 0-100, read-out: Plant response rating, Bluegrass) of 90%, a pest or weed control at 16 g/ha (canarygrass; 16 g ai/ha, scale 0 (no effect) to 100 (complete control), read-out: Plant response rating, Canarygrass) of 35% and a pest or weed control at 31 g/ha (canarygrass; 31 g ai/ha, scale 0-100, read-out: Plant response rating, Canarygrass) of 75%. It also gave a pest or weed control at 62 g/ha (canarygrass; 62 g ai/ha, scale 0-100, read-out: Plant response rating, Canarygrass) of 100%, a pest or weed control at 125 g/ha (canarygrass; 125 g ai/ha, scale 0-100, read-out: Plant response rating, Canarygrass) of 100% and a pest or weed control at 16 g/ha (deadnettle; 16 g ai/ha, scale 0 (no effect) to 100 (complete control), read-out: Plant response rating, Deadnettle) of 90%. It also gave a pest or weed control at 31 g/ha (deadnettle; 31 g ai/ha, scale 0-100, read-out: Plant response rating, Deadnettle) of 100%, a pest or weed control at 62 g/ha (deadnettle; 62 g ai/ha, scale 0-100, read-out: Plant response rating, Deadnettle) of 98% and a pest or weed control at 125 g/ha (deadnettle; 125 g ai/ha, scale 0-100, read-out: Plant response rating, Deadnettle) of 100%. It also gave a plant injury at 16 g/ha (oilseed rape; 16 g ai/ha, scale 0 (no effect) to 100 (complete control), read-out: Plant response rating, Oilseed Rape) of 100%, a plant injury at 31 g/ha (oilseed rape; 31 g ai/ha, scale 0-100, read-out: Plant response rating, Oilseed Rape) of 100% and a plant injury at 62 g/ha (oilseed rape; 62 g ai/ha, scale 0-100, read-out: Plant response rating, Oilseed Rape) of 100%. For the same compound, the plant injury at 125 g/ha (oilseed rape; 125 g ai/ha, scale 0-100, read-out: Plant response rating, Oilseed Rape) was 100%, the pest or weed control at 16 g/ha (pigweed; 16 g ai/ha, scale 0 (no effect) to 100 (complete control), read-out: Plant response rating, Pigweed) was 98% and the pest or weed control at 31 g/ha (pigweed; 31 g ai/ha, scale 0 (no effect) to 100 (complete control), read-out: Plant response rating, Pigweed) was 100%. It also gave a pest or weed control at 62 g/ha (pigweed; 62 g ai/ha, scale 0-100, read-out: Plant response rating, Pigweed) of 100%, a pest or weed control at 125 g/ha (pigweed; 125 g ai/ha, scale 0-100, read-out: Plant response rating, Pigweed) of 100% and a pest or weed control at 16 g/ha (speedwell; 16 g ai/ha, scale 0 (no effect) to 100 (complete control), read-out: Plant response rating, Speedwell) of 100%. The pest or weed control at 31 g/ha (speedwell; 31 g ai/ha, scale 0 (no effect) to 100 (complete control), read-out: Plant response rating, Speedwell) was 100%, the pest or weed control at 62 g/ha (speedwell; 62 g ai/ha, scale 0-100, read-out: Plant response rating, Speedwell) was 100% and the pest or weed control at 125 g/ha (speedwell; 125 g ai/ha, scale 0-100, read-out: Plant response rating, Speedwell) was 100%. The plant injury at 16 g/ha (spring wheat; 16 g ai/ha, scale 0 (no effect) to 100 (complete control), read-out: Plant response rating, Wheat, Spring) was 25%, the plant injury at 31 g/ha (spring wheat; 31 g ai/ha, scale 0 (no effect) to 100 (complete control), read-out: Plant response rating, Wheat, Spring) was 30% and the plant injury at 62 g/ha (spring wheat; 62 g ai/ha, scale 0-100, read-out: Plant response rating, Wheat, Spring) was 65%. For the same compound, the plant injury at 125 g/ha (spring wheat; 125 g ai/ha, scale 0-100, read-out: Plant response rating, Wheat, Spring) was 75%, the pest or weed control at 16 g/ha (wild oat; 16 g ai/ha, scale 0 (no effect) to 100 (complete control), read-out: Plant response rating, Oat, Wild) was 30% and the pest or weed control at 31 g/ha (wild oat; 31 g ai/ha, scale 0-100, read-out: Plant response rating, Oat, Wild) was 65%. The pest or weed control at 62 g/ha (wild oat; 62 g ai/ha, scale 0-100, read-out: Plant response rating, Oat, Wild) was 80%, the pest or weed control at 125 g/ha (wild oat; 125 g ai/ha, scale 0-100, read-out: Plant response rating, Oat, Wild) was 98% and the pest or weed control at 16 g/ha (bluegrass [2]; 16 g ai/ha) was 5%. The pest or weed control at 31 g/ha (bluegrass [2]; 31 g ai/ha) was 20%, the pest or weed control at 62 g/ha (bluegrass [2]; 62 g ai/ha) was 35% and the pest or weed control at 125 g/ha (bluegrass [2]; 125 g ai/ha) was 40%. It also gave a pest or weed control at 16 g/ha (lambsquarters; 16 g ai/ha, scale 0-100, read-out: Plant response rating, Lambsquarters) of 80%, a pest or weed control at 31 g/ha (lambsquarters; 31 g ai/ha, scale 0 to 100 (0 no effect, 100 complete control), read-out: Plant response rating, Lambsquarters) of 95% and a pest or weed control at 62 g/ha (lambsquarters; 62 g ai/ha, scale 0 to 100 (0 no effect, 100 complete control), read-out: Plant response rating, Lambsquarters) of 95%. The pest or weed control at 125 g/ha (lambsquarters; 125 g ai/ha, scale 0 to 100 (0 no effect, 100 complete control), read-out: Plant response rating, Lambsquarters) was 98%, the pest or weed control at 16 g/ha (wild buckwheat; 16 g ai/ha) was 100% and the pest or weed control at 31 g/ha (wild buckwheat; 31 g ai/ha) was 100%. It also gave a pest or weed control at 62 g/ha (wild buckwheat; 62 g ai/ha) of 100% and a pest or weed control at 125 g/ha (wild buckwheat; 125 g ai/ha) of 100%.
